In ChEMBL document CHEMBL1201862, “PubChem BioAssay data set” (2004):
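1) Cells in 96-well plates. 2) Compound, 48 h, 5 concentrations. 3) Linear interpolation between surrounding doses. 4) Unreached endpoint = highest concentration. Abbreviation: GI50, concentration required for 50% inhibition of growth.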 The source made the active and inactive calls. Rule as the data show it: active = GI50 up to about 1.1 µM and inactive = higher.

How the values were obtained:
Test in all cases: NCI anticancer screen, dose series, 48 h
[1] = test system: CCRF-CEM
[2] = test system: COLO 205
[3] = test system: EKVX
[4] = test system: HOP-62
[5] = test system: MDA-MB-435
[6] = test system: MDA-N
[7] = test system: Malme-3M
[8] = test system: NCI/ADR-RES
[9] = test system: OVCAR-3
[10] = test system: OVCAR-4
[11] = test system: OVCAR-8
[12] = test system: RPMI-8226
[13] = test system: RXF 393
[14] = test system: SF-295
[15] = test system: SK-MEL-5
[16] = test system: SR
[17] = test system: SW-620
[18] = test system: UACC-62
[19] = test system: A498
[20] = test system: DLD-1

With COc1ccc(-c2c(C#N)c(NC(=S)NC(=O)c3ccccc3)nc3c2CCCC3)cc1OC the GI50 [1] was 50.7 µM (inactive), the GI50 [2] was > 100 µM (inactive) and the GI50 [3] was 24.5 µM (inactive). The GI50 [4] was 44.9 µM (inactive), the GI50 [5] was 66.1 µM (inactive) and the GI50 [6] was 65.3 µM (inactive). The GI50 [7] was 29.8 µM (inactive), the GI50 [8] was 56.4 µM (inactive) and the GI50 [9] was 99.5 µM (inactive). The GI50 [10] was 45.4 µM (inactive), the GI50 [11] was 48.5 µM (inactive) and the GI50 [12] was 42 µM (inactive). The GI50 [13] was 18.3 µM (inactive), the GI50 [14] was 56.6 µM (inactive) and the GI50 [15] was 34.6 µM (inactive). For the same molecule, the GI50 [16] was 59.2 µM (inactive), the GI50 [17] was 75.9 µM (inactive) and the GI50 [18] was 44.5 µM (inactive).

CCN(CC)CCN1C(=O)C(=O)N(c2cccc3ccccc23)C1=O was tested, and the GI50 [19] was > 10 µM (inactive), the GI50 [1] was > 10 µM (inactive) and the GI50 [2] was > 10 µM (inactive). The GI50 [3] was > 10 µM (inactive), the GI50 [4] was > 10 µM (inactive) and the GI50 [5] was > 10 µM (inactive). The GI50 [6] was > 10 µM (inactive), the GI50 [7] was > 10 µM (inactive) and the GI50 [8] was > 10 µM (inactive). The GI50 [9] was > 10 µM (inactive), the GI50 [10] was > 10 µM (inactive) and the GI50 [11] was > 10 µM (inactive). For the same molecule, the GI50 [12] was > 10 µM (inactive), the GI50 [13] was > 10 µM (inactive) and the GI50 [14] was > 10 µM (inactive). For the same molecule, the GI50 [15] was > 10 µM (inactive), the GI50 [16] was > 10 µM (inactive) and the GI50 [17] was > 10 µM (inactive). The GI50 [18] was > 10 µM (inactive).

With CC1(C)CCc2ccc(OCCC(=O)O)cc2O1 the GI50 [1] was > 100 µM (inactive), the GI50 [2] was > 100 µM (inactive) and the GI50 [20] was > 100 µM (inactive). For the same molecule, the GI50 [3] was > 100 µM (inactive), the GI50 [4] was > 100 µM (inactive) and the GI50 [7] was > 100 µM (inactive). For the same molecule, the GI50 [9] was > 100 µM (inactive), the GI50 [10] was > 100 µM (inactive) and the GI50 [11] was > 100 µM (inactive). For the same molecule, the GI50 [12] was > 100 µM (inactive), the GI50 [14] was > 100 µM (inactive) and the GI50 [15] was > 100 µM (inactive). For the same molecule, the GI50 [16] was > 100 µM (inactive), the GI50 [17] was > 100 µM (inactive) and the GI50 [18] was > 100 µM (inactive).

In the case of CCOc1cc(C(=O)O)c2c(ccc3ccc(OC)c(OC)c32)c1OC, the GI50 [1] is reported as > 100 µM (inactive), the GI50 [2] is reported as > 100 µM (inactive) and the GI50 [3] is reported as > 100 µM (inactive). The GI50 [4] was > 100 µM (inactive), the GI50 [5] was > 100 µM (inactive) and the GI50 [6] was > 100 µM (inactive). The GI50 [7] was > 100 µM (inactive), the GI50 [8] was > 100 µM (inactive) and the GI50 [9] was > 100 µM (inactive). For the same molecule, the GI50 [10] was > 100 µM (inactive), the GI50 [11] was > 100 µM (inactive) and the GI50 [12] was > 100 µM (inactive). For the same molecule, the GI50 [13] was > 100 µM (inactive), the GI50 [14] was > 100 µM (inactive) and the GI50 [15] was > 100 µM (inactive). For the same molecule, the GI50 [16] was > 100 µM (inactive), the GI50 [17] was > 100 µM (inactive) and the GI50 [18] was > 100 µM (inactive).

O=C(OC(=O)n1ccc2ccccc21)n1ccc2ccccc21 was tested, and the GI50 [19] was > 100 µM (inactive), the GI50 [1] was > 100 µM (inactive) and the GI50 [2] was > 100 µM (inactive). For the same molecule, the GI50 [20] was > 100 µM (inactive), the GI50 [3] was > 100 µM (inactive) and the GI50 [4] was > 100 µM (inactive). For the same molecule, the GI50 [8] was > 100 µM (inactive), the GI50 [9] was > 100 µM (inactive) and the GI50 [10] was > 100 µM (inactive). The GI50 [11] was > 100 µM (inactive), the GI50 [12] was > 100 µM (inactive) and the GI50 [13] was > 100 µM (inactive). For the same molecule, the GI50 [14] was > 92.3 µM (inactive), the GI50 [15] was > 100 µM (inactive) and the GI50 [17] was > 100 µM (inactive). For the same molecule, the GI50 [18] was > 100 µM (inactive).

With CN1CCN(Cn2nc(COc3ccc(Cl)cc3)n(/N=C/c3ccc(-c4ccc(Cl)cc4Cl)o3)c2=S)CC1 the GI50 [19] was 18.3 µM (inactive), the GI50 [1] was 0.247 µM (active) and the GI50 [3] was 14.5 µM (inactive). For the same molecule, the GI50 [4] was 5 µM (inactive), the GI50 [5] was 2.55 µM (inactive) and the GI50 [6] was 4.02 µM (inactive). The GI50 [8] was 20.5 µM (inactive), the GI50 [9] was 14.1 µM (inactive) and the GI50 [10] was 3.05 µM (inactive). The GI50 [11] was 4.89 µM (inactive), the GI50 [13] was 2.33 µM (inactive) and the GI50 [14] was 13.4 µM (inactive). The GI50 [15] was 14.8 µM (inactive), the GI50 [16] was 2.63 µM (inactive) and the GI50 [17] was 5.06 µM (inactive).

For O=C(NN1C(=O)CS(=O)(=O)C1c1ccc(C(F)(F)F)cc1)c1ccncc1 (stereo not drawn), the GI50 [19] was > 100 µM (inactive), the GI50 [1] was > 100 µM (inactive) and the GI50 [2] was > 100 µM (inactive). The GI50 [20] was > 100 µM (inactive), the GI50 [4] was > 100 µM (inactive) and the GI50 [7] was > 100 µM (inactive). For the same molecule, the GI50 [10] was > 100 µM (inactive), the GI50 [12] was > 100 µM (inactive) and the GI50 [13] was > 100 µM (inactive). The GI50 [14] was > 100 µM (inactive), the GI50 [15] was > 100 µM (inactive) and the GI50 [16] was > 100 µM (inactive). The GI50 [17] was > 100 µM (inactive).

For COCCOCOC(C)(C)[C@H](CCO)O[Si](c1ccccc1)(c1ccccc1)C(C)(C)C, the GI50 [19] was 16.7 µM (inactive), the GI50 [2] was 15.9 µM (inactive) and the GI50 [20] was 9.64 µM (inactive). For the same molecule, the GI50 [3] was 13.5 µM (inactive), the GI50 [7] was 14.3 µM (inactive) and the GI50 [9] was 10.2 µM (inactive). For the same molecule, the GI50 [11] was 10.4 µM (inactive), the GI50 [12] was 6.17 µM (inactive) and the GI50 [13] was 5.3 µM (inactive). For the same molecule, the GI50 [14] was 5.74 µM (inactive), the GI50 [15] was 13.4 µM (inactive) and the GI50 [16] was 3.25 µM (inactive). The GI50 [17] was 11.2 µM (inactive) and the GI50 [18] was 12 µM (inactive).

In the case of CC1(C)N/C(=C\C=O)C(C)(C)N1O, the GI50 [1] is reported as > 100 µM (inactive), the GI50 [2] is reported as > 100 µM (inactive) and the GI50 [3] is reported as > 100 µM (inactive). For the same molecule, the GI50 [4] was > 100 µM (inactive), the GI50 [5] was > 100 µM (inactive) and the GI50 [6] was > 100 µM (inactive). For the same molecule, the GI50 [7] was > 100 µM (inactive), the GI50 [8] was > 100 µM (inactive) and the GI50 [9] was > 100 µM (inactive). For the same molecule, the GI50 [10] was > 100 µM (inactive), the GI50 [11] was > 100 µM (inactive) and the GI50 [12] was > 100 µM (inactive). For the same molecule, the GI50 [13] was > 100 µM (inactive), the GI50 [14] was > 100 µM (inactive) and the GI50 [15] was > 100 µM (inactive). The GI50 [16] was > 100 µM (inactive), the GI50 [17] was > 100 µM (inactive) and the GI50 [18] was > 100 µM (inactive).

In the case of CCCCN(CCCC)c1ccc(/N=N/c2ccc(S(=O)(=O)O)cc2)cc1, the GI50 [19] is reported as 31.4 µM (inactive), the GI50 [1] is reported as 18.4 µM (inactive) and the GI50 [2] is reported as 18.7 µM (inactive). The GI50 [3] was 39.1 µM (inactive), the GI50 [5] was 57.9 µM (inactive) and the GI50 [6] was 52.2 µM (inactive). The GI50 [8] was 24.4 µM (inactive), the GI50 [9] was 30.1 µM (inactive) and the GI50 [10] was 17.8 µM (inactive). The GI50 [11] was 22 µM (inactive), the GI50 [12] was 20.4 µM (inactive) and the GI50 [13] was 14.4 µM (inactive). The GI50 [14] was 40.9 µM (inactive), the GI50 [15] was 16.2 µM (inactive) and the GI50 [17] was 33 µM (inactive). The GI50 [18] was > 100 µM (inactive).

For COc1ccccc1/C=C1\CCC(CCN2CCOCC2)C1=O (stereo not drawn), the GI50 [19] was > 100 µM (inactive), the GI50 [1] was 38.7 µM (inactive) and the GI50 [20] was > 100 µM (inactive). The GI50 [3] was > 100 µM (inactive), the GI50 [4] was > 100 µM (inactive) and the GI50 [7] was > 100 µM (inactive). The GI50 [9] was > 100 µM (inactive), the GI50 [10] was 37.8 µM (inactive) and the GI50 [11] was > 100 µM (inactive). The GI50 [12] was 34 µM (inactive), the GI50 [13] was 59.8 µM (inactive) and the GI50 [14] was > 100 µM (inactive). For the same molecule, the GI50 [15] was 68.1 µM (inactive), the GI50 [16] was > 100 µM (inactive) and the GI50 [17] was > 100 µM (inactive). For the same molecule, the GI50 [18] was > 100 µM (inactive).

For COc1cc2c(cc1OC)C(Cc1c3ccccc3cc3ccccc13)N(C)CC2 (stereo not drawn), the GI50 [19] was 17.4 µM (inactive), the GI50 [1] was 18.8 µM (inactive) and the GI50 [2] was 11.2 µM (inactive). The GI50 [20] was 32.1 µM (inactive), the GI50 [3] was 25.6 µM (inactive) and the GI50 [4] was 21.4 µM (inactive). The GI50 [8] was 24.7 µM (inactive), the GI50 [9] was 27.7 µM (inactive) and the GI50 [10] was 30.7 µM (inactive). For the same molecule, the GI50 [11] was 26.5 µM (inactive), the GI50 [12] was 13.9 µM (inactive) and the GI50 [13] was 10.5 µM (inactive). For the same molecule, the GI50 [14] was 17.4 µM (inactive), the GI50 [15] was 17.3 µM (inactive) and the GI50 [17] was 27 µM (inactive). For the same molecule, the GI50 [18] was 17.8 µM (inactive).

With Brc1ccccc1/C=C\C1(c2ccccc2)OCCO1 the GI50 [19] was 12.9 µM (inactive), the GI50 [1] was 3.03 µM (inactive) and the GI50 [2] was 19.6 µM (inactive). The GI50 [3] was 15.8 µM (inactive), the GI50 [4] was 14.5 µM (inactive) and the GI50 [5] was 11.7 µM (inactive). The GI50 [6] was 12.3 µM (inactive), the GI50 [7] was 15.9 µM (inactive) and the GI50 [8] was 10.9 µM (inactive). The GI50 [9] was 12.7 µM (inactive), the GI50 [10] was 4.26 µM (inactive) and the GI50 [11] was 9.23 µM (inactive). For the same molecule, the GI50 [12] was 1.01 µM (active), the GI50 [13] was 13.9 µM (inactive) and the GI50 [14] was 13.4 µM (inactive). The GI50 [15] was 15.2 µM (inactive), the GI50 [16] was 0.692 µM (active) and the GI50 [17] was 5.47 µM (inactive). The GI50 [18] was 14.7 µM (inactive).
